Legend:
Tetranychus urticae [1] = assay: Acaricidal activity against Tetranychus urticae (two-spotted spider mite) in French bean leaf at <50 ppm after 2 days; type: functional
Meloidogyne incognita [2] = assay: Nematicidal activity against Meloidogyne incognita (root-knot nematode) at 1 kg/ha after 3 weeks; type: functional
[3] = Dissociation constant, pKa of the compound by titration method; type: physicochemical
Myzus persicae [4] = assay: Aphicidal activity against Myzus persicae (green peach aphid) in cabbage leaf at <50 ppm after 2 days; type: functional
[5] = Acute toxicity in Mus musculus (mouse); type: organism-based; conditions: in vivo
Myzus persicae [6] = assay: Aphicidal activity against Myzus persicae (green peach aphid) in cabbage leaf at 200 to 800 ppm after 2 days; type: functional
Tetranychus urticae [7] = assay: Acaricidal activity against Tetranychus urticae (two-spotted spider mite) in French bean leaf at 200 to 800 ppm after 2 days; type: functional
Meloidogyne incognita [8] = assay: Nematicidal activity against Meloidogyne incognita (root-knot nematode) at 4 to 8 kg/ha after 3 weeks; type: functional
Myzus persicae [9] = assay: Aphicidal activity against Myzus persicae (green peach aphid) in cabbage leaf at 50 to 200 ppm after 2 days; type: functional
Tetranychus urticae [10] = assay: Acaricidal activity against Tetranychus urticae (two-spotted spider mite) in French bean leaf at 50 to 200 ppm after 2 days; type: functional
Meloidogyne incognita [11] = assay: Nematicidal activity against Meloidogyne incognita (root-knot nematode) at 8 kg/ha after 3 weeks; type: functional
Tetranychus urticae [12] = assay: Acaricidal activity against Tetranychus urticae (two-spotted spider mite) in French bean leaf at 800 ppm after 2 days; type: functional
Myzus persicae [13] = assay: Aphicidal activity against Myzus persicae (green peach aphid) in cabbage leaf at 800 ppm after 2 days; type: functional
Meloidogyne incognita [14] = assay: Nematicidal activity against Meloidogyne incognita (root-knot nematode) at 1 to 4 kg/ha after 3 weeks; type: functional
Meloidogyne incognita [15] = assay: Insecticidal activity against Meloidogyne incognita (root-knot nematode); type: functional, organism-based
Myzus persicae [16] = assay: Insecticidal activity against Myzus persicae (green peach aphid); type: functional
Musca domestica = assay: Insecticidal activity against adult Musca domestica (house fly) assessed per adult; type: functional
Tetranychus urticae [17] = assay: Insecticidal activity against Tetranychus urticae (two-spotted spider mite); type: functional
Acetylcholinesterase = Acetylcholinesterase (Musca domestica, UniProt Q7YWJ9); assay: Inhibition of Musca domestica (house fly) head AchE; conditions: read-out: I50
Sequence of Acetylcholinesterase (Q7YWJ9 whole entry): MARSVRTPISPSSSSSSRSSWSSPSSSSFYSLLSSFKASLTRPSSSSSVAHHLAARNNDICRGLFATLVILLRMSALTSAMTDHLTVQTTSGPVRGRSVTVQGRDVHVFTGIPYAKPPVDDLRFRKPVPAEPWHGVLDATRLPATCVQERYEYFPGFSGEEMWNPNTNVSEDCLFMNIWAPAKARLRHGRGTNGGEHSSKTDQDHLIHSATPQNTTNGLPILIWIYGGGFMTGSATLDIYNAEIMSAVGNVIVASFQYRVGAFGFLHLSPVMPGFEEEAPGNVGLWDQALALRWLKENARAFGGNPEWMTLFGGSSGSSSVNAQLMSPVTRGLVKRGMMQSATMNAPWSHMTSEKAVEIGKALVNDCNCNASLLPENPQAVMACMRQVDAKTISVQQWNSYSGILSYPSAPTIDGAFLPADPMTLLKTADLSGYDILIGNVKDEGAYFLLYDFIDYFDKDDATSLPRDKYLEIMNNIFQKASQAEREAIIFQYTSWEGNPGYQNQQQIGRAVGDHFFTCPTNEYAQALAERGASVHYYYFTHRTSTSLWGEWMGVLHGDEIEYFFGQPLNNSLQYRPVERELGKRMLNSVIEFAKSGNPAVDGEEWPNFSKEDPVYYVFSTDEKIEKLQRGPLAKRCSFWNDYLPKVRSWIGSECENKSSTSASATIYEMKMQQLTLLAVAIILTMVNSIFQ

Compound: CCOP(=O)(SC(C)CC)N1CCOC1=O (stereo not given)
- Activity (Tetranychus urticae [1]): >90%
- Activity (Meloidogyne incognita [2]): 0%
- pKa [3]: 11.8
- Activity (Myzus persicae [4]): >90%
- LD50 [5]: < 30 mg/kg

Compound: CCOP(=O)(SC(C)CC)N1CCCOC1=O (stereo not given)
- Activity (Myzus persicae [6]): >90%
- Activity (Tetranychus urticae [7]): >90%
- Activity (Meloidogyne incognita [8]): 0%

Compound: CCOP(=O)(SC(C)CC)N1CCCC1=O (stereo not given)
- Activity (Myzus persicae [9]): >90%
- Activity (Tetranychus urticae [7]): >90%
- Activity (Meloidogyne incognita [2]): 0%

Compound: CCOP(=O)(SC(C)CC)N1CCSC1=S (stereo not given)
- Activity (Tetranychus urticae [10]): >90%
- Activity (Myzus persicae [6]): >90%
- Activity (Meloidogyne incognita [11]): >25%

Compound: CCOP(=O)(SC(C)CC)N1CCSC1=C(C#N)C#N (stereo not given)
- Activity (Myzus persicae [6]): >90%
- Activity (Meloidogyne incognita [11]): >25%
- Activity (Tetranychus urticae [12]): <90%

Compound: CCOP(=O)(SC(C)CC)N1OCCC1=O (stereo not given)
- Activity (Myzus persicae [6]): >90%
- Activity (Tetranychus urticae [7]): >90%
- pKa [3]: 10.5
- Activity (Meloidogyne incognita [11]): >25%

Compound: CCOP(=O)(SC(C)CC)n1ccoc1=O (stereo not given)
- Activity (Meloidogyne incognita [11]): >25%
- Activity (Tetranychus urticae [12]): <90%
- Activity (Myzus persicae [13]): <90%

Compound: CCOP(=O)(SC(C)CC)N1C(=O)CCC1=O (stereo not given)
- pKa [3]: 9.6
- Activity (Meloidogyne incognita [11]): >25%
- Activity (Tetranychus urticae [12]): <90%
- Activity (Myzus persicae [13]): <90%

Compound: CCOP(=O)(SC(C)CC)N1CC(=O)SC1=O (stereo not given)
- Activity (Meloidogyne incognita [11]): >25%
- Activity (Tetranychus urticae [12]): <90%
- Activity (Myzus persicae [13]): <90%

Compound: CCOP(=O)(SC(C)CC)N1C(=O)OCC1C (stereo not given)
- Activity (Tetranychus urticae [1]): >90%
- Activity (Meloidogyne incognita [2]): 0%
- Activity (Myzus persicae [4]): >90%

Compound: CCOP(=O)(SC(C)CC)N1C(=O)OCC1CC (stereo not given)
- Activity (Tetranychus urticae [1]): >90%
- Activity (Meloidogyne incognita [2]): 0%
- Activity (Myzus persicae [4]): >90%

Compound: CCCCC1COC(=O)N1P(=O)(OCC)SC(C)CC (stereo not given)
- Activity (Tetranychus urticae [7]): >90%
- Activity (Myzus persicae [13]): <90%
- Activity (Meloidogyne incognita [14]): 0%

Compound: CCOP(=O)(SC(C)CC)N1C(=O)OCC1OC (stereo not given)
- Activity (Tetranychus urticae [10]): >90%
- Activity (Myzus persicae [9]): >90%
- Activity (Meloidogyne incognita [2]): 0%

Compound: CCOP(=O)(SC(C)CC)N1C(=O)OCC1C(=O)OC (stereo not given)
- Activity (Tetranychus urticae [7]): >90%
- Activity (Meloidogyne incognita [11]): >25%
- Activity (Myzus persicae [13]): <90%

Compound: CCOP(=O)(SC(C)CC)N1CC(C)OC1=O (stereo not given)
- Activity (Tetranychus urticae [1]): >90%
- Activity (Meloidogyne incognita [2]): 0%
- Activity (Myzus persicae [4]): >90%

Compound: CCOP(=O)(SC(C)CC)N1CC(C(C)(C)C)OC1=O (stereo not given)
- Activity (Tetranychus urticae [10]): >90%
- Activity (Myzus persicae [6]): >90%
- Activity (Meloidogyne incognita [8]): 0%

Compound: CCOP(=O)(SC(C)CC)N1CC(S(C)(=O)=O)OC1=O (stereo not given)
- Activity (Myzus persicae [6]): >90%
- Activity (Tetranychus urticae [7]): >90%
- Activity (Meloidogyne incognita [8]): 0%

Compound: CCOP(=O)(SC(C)CC)N1CC(C#N)OC1=O (stereo not given)
- Activity (Tetranychus urticae [7]): >90%
- Activity (Myzus persicae [13]): <90%
- Activity (Meloidogyne incognita [8]): 0%

Compound: CCOP(=O)(SC(C)CC)N1C(=O)OC(C)C1C (stereo not given)
- Activity (Tetranychus urticae [1]): >90%
- Activity (Meloidogyne incognita [2]): 0%

Compound: CCOP(=O)(OCC)N1CCOC1=O
- Activity (Meloidogyne incognita [11]): >25%
- Activity (Tetranychus urticae [12]): <90%
- Activity (Myzus persicae [13]): <90%

Compound: CCCSP(=O)(SC)N1CCOC1=O (stereo not given)
- Activity (Meloidogyne incognita [11]): >25%
- Activity (Tetranychus urticae [12]): <90%
- Activity (Myzus persicae [13]): <90%

Compound: CCCSP(=O)(NC)N1CCOC1=O (stereo not given)
- Activity (Myzus persicae [6]): >90%
- Activity (Tetranychus urticae [7]): >90%
- Activity (Meloidogyne incognita [11]): >25%

Compound: CCOP(=O)(SCC(C)C)N1CCOC1=O (stereo not given)
- Activity (Tetranychus urticae [1]): >90%
- Activity (Meloidogyne incognita [14]): 0%
- Activity (Myzus persicae [4]): >90%

Compound: CCOP(=O)(SC(C)C)N1CCOC1=O (stereo not given)
- Activity (Myzus persicae [6]): >90%
- Activity (Tetranychus urticae [7]): >90%
- Activity (Meloidogyne incognita [8]): 0%

Compound: CCC(C)SP(=O)(OCCF)N1CCOC1=O (stereo not given)
- Activity (Myzus persicae [6]): >90%
- Activity (Tetranychus urticae [12]): <90%
- Activity (Meloidogyne incognita [8]): 0%

Compound: CCCOP(=O)(SC(C)CC)N1CCOC1=O (stereo not given)
- Activity (Myzus persicae [6]): >90%
- Activity (Tetranychus urticae [7]): >90%
- Activity (Meloidogyne incognita [8]): 0%

Compound: CCC(C)SP(=O)(OC)N1CCOC1=O (stereo not given)
- Activity (Myzus persicae [6]): >90%
- Activity (Tetranychus urticae [7]): >90%
- Activity (Meloidogyne incognita [11]): >25%

Compound: CCOP(=S)(SC(C)CC)N1CCOC1=O (stereo not given)
- Activity (Myzus persicae [6]): >90%
- Activity (Tetranychus urticae [7]): >90%
- Activity (Meloidogyne incognita [11]): >25%

Compound: CCOP(=O)(SC(C)CC)N1CCSC1=O (racemic) [FOSTHIAZATE]
- EC50 (Meloidogyne incognita [15]): 29.6 ppm
- LC50 (Myzus persicae [16]): >4.06 ppm
- Activity (Musca domestica): 18 µg
- LC50 (Tetranychus urticae [17]): >22.4 ppm

Compound: CCOP(=O)(SC(C)CC)N1CCSC1=O (single isomer, unassigned; (+)) [FOSTHIAZATE]
- EC50 (Meloidogyne incognita [15]): 2.339 ppm
- LC50 (Myzus persicae [16]): >53.7 ppm
- Activity (Musca domestica): 1.945 µg
- LC50 (Tetranychus urticae [17]): >800 ppm

Compound: CCOP(=O)(SC(C)CC)N1CCSC1=O (stereo in doubt; (-)-8) [FOSTHIAZATE]
- EC50 (Meloidogyne incognita [15]): 0.079 ppm
- LC50 (Myzus persicae [16]): >13.2 ppm
- Activity (Musca domestica): 0.108 µg
- LC50 (Tetranychus urticae [17]): 35.7 ppm
- IC50 (Acetylcholinesterase): > 1000 µM

Compound: CCOP(=O)(SC(C)CC)N1CCSC1=O (stereo not given) [FOSTHIAZATE]
- Activity (Tetranychus urticae [1]): >90%
- Activity (Meloidogyne incognita [2]): 0%
- pKa [3]: 11.6
- Activity (Myzus persicae [4]): >90%
- LD50 [5]: 127 mg/kg

Source: ChEMBL document CHEMBL3044645, “Synthesis and Pesticidal Activities of N-Phosphinoyl Heterocycles” (J Pestic Sci, 1997)
